Source: patent US20080292584A1 (priority 2005, published 2008)
“And” between values parts separate entries of the source, which are not always exact repeats. Equal entries are not always repeated.

Assays:
[1] = target: T1, CYP2D6 (Homo sapiens, UniProt P10635); assay: Inhibition of CYP2D6 activity in pooled human liver microsomes (dextromethorphan 5 μM to dextrorphan); assay type: in vitro ADME
Protocol: All other incubations were for 30 minutes.
Four replicates were performed.
Two replicates were performed.

[2] = tested on: CYP2A6; assay: Induction/inhibition of CYP2A6 activity in cryopreserved human hepatocytes (coumarin); assay type: in vitro ADME
Excerpt: (§1) Hepatocytes from three human donors were obtained from a cryopreserved hepatocyte bank (In Vitro Technologies, Inc., USA). After thawing, viable hepatocytes were transferred to collagen-coated 48-well plates for attachment in plating medium (DMEM stock (Dulbecco's modified Eagle's medium, supplemented with bovine serum albumin, fructose, N-(2-hydroxyethyl)piperazine-N′-(2-ethanesulfonate) (HEPES), and sodium bicarbonate), supplemented with antibiotics, bovine serum, hydrocortisone, insulin and minimum essential medium (MEM) nonessential amino acids). After attachment to the collagen matrix, plating medium was replaced with sandwich medium (plating medium supplemented with VITROGEN) and incubated until use.
(§2) The supplemented KHB was replaced with 150 μL supplemented KHB containing the appropriate isoform-selective substrate and incubated for 4 hrs prior to termination by adding 150 μL ice-cold methanol, except for the CYP2C8 incubations which were terminated by adding 150 μL acetonitrile.
(§3) All substrates were dissolved in acetonitrile.
(§4) Replicate trials and controls were performed. […] Additionally, reference control samples were included to evaluate inducibility of CYP2B6, CYP2C9, and CYP2C19 in the test system.
(§5) Mean specific activity values with associated p-values≦0.05 were deemed to be statistically significant.

[3] = target: T1, CYP2D6; assay: Induction/inhibition of CYP2D6 activity in cryopreserved human hepatocytes (dextromethorphan)
Excerpt: as §1, §2, §3, §4, §5

[4] = target: CYP3A4 (Homo sapiens, UniProt P08684); assay: Induction/inhibition of CYP3A4 activity in cryopreserved human hepatocytes (testosterone)
Excerpt: as §1, §2, §3, §4, §5

[5] = in vivo; Bruce et al. 1966; cited from earlier work
[6] = tested on: CYP2B6; assay: Chemical inhibition of metaxalone turnover in human liver microsomes, CYP2B6 inhibitor thio-TEPA; conditions: 1 mg/mL HLM, 60 min, with thio-TEPA; for % Turnover / % inhibition of turnover / Conc.: single replicates
Protocol: (§6) Human liver microsomes pooled from 15 individuals (male and female) (Pool HMMC-PL020; CellzDirect, Inc., In Vitro Products and Services Division) were used in some experiments of this study.
(§7) % Turnover=100−{[TA(final)]/[mean of TA(0 min)]}×100,
(§8) % Inhibition of Turnover=100{1−([TA(0 min)]−[TA(final-inhibitor)])/([TA(0 min)]−[TA(final-no inhibitor)])}.
(§9) The inhibitors or vehicle control were incubated with the pooled human liver microsomes (1 mg/mL) and NADPH (1 mM) in 0.1 M phosphate buffer, pH 7.4. […] Incubations were conducted in triplicate and terminated by addition of organic solvent. Samples were extracted and analyzed by LC-MS/MS as described above.

[7] = target: T2, CYP2C8 (Homo sapiens, UniProt P10632); assay: Chemical inhibition of metaxalone turnover in human liver microsomes, CYP2C8 inhibitor quercetin; conditions: 1 mg/mL HLM, 60 min, with quercetin, single replicates
T2 sequence (P10632 1-490): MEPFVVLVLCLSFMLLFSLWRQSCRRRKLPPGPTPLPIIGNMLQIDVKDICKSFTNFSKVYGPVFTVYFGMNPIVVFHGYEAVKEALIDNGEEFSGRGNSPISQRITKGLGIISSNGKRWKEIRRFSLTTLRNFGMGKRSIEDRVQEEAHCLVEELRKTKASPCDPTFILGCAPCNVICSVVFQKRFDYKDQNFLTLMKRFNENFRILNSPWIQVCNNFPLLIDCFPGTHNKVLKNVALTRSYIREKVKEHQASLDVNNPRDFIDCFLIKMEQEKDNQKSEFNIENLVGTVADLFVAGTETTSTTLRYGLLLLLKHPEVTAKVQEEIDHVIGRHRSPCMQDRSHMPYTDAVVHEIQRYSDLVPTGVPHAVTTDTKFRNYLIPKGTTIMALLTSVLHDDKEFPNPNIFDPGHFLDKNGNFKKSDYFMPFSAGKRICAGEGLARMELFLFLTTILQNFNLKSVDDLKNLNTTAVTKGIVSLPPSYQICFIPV
Protocol: as §6, §7, §8, §9

[8] = target: CYP2C19 (Homo sapiens, UniProt P33261); assay: Chemical inhibition of metaxalone turnover in human liver microsomes, CYP2C19 inhibitor ticlopidine; conditions: 1 mg/mL HLM, 60 min, with ticlopidine; for % Turnover / % inhibition of turnover / Conc.: single replicates
Protocol: as §6, §7, §8, §9

[9] = human, hepatocytes, 48 h, 40 μM
[10] = 7.5 μM metaxalone, listed as Metaxalone

CYP3A4, sequence (P08684 whole entry): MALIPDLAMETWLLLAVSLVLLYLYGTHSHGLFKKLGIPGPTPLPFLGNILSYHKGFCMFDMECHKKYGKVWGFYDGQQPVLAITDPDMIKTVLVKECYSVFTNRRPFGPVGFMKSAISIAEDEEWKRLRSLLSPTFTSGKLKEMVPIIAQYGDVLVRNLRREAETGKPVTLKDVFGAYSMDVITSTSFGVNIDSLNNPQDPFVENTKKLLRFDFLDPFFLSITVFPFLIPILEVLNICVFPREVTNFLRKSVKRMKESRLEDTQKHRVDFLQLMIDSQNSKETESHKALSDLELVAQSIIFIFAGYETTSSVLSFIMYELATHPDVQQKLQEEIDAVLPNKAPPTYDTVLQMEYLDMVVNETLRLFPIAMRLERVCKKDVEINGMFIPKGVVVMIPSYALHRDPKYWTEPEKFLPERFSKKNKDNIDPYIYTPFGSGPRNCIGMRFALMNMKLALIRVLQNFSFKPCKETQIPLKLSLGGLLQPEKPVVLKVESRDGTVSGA
CYP2C19, sequence (P33261 whole entry): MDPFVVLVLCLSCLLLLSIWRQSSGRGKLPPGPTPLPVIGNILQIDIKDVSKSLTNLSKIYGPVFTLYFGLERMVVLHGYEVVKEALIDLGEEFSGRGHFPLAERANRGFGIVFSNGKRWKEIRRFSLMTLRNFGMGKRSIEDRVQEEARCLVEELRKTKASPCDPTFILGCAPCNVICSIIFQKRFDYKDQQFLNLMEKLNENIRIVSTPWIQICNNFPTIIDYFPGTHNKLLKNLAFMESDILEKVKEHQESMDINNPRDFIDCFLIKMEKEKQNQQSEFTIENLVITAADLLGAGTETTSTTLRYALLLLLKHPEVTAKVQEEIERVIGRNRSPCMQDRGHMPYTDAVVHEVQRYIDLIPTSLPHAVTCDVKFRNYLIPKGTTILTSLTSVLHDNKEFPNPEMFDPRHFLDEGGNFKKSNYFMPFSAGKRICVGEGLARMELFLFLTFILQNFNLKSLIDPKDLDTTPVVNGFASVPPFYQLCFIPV
T1 sequence (P10635 whole entry): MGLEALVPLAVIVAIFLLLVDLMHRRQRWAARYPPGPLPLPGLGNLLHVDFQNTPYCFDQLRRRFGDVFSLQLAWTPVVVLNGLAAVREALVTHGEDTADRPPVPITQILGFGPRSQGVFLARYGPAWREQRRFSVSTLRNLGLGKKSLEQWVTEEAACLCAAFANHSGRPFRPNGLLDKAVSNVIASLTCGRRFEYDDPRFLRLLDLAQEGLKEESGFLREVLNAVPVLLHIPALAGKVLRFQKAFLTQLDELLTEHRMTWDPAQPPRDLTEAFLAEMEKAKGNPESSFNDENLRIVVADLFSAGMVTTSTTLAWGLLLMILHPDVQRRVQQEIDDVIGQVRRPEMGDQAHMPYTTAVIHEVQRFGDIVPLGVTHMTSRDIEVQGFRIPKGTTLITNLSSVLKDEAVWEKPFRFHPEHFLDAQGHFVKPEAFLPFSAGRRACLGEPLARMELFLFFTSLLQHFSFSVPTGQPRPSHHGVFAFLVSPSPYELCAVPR

Cc1cc(C)cc(OCC2CNC(=O)O2)c1 (stereo not shown) [metaxalone, 5-[(3,5-dimethylphenoxy)methyl]-2-oxazolidinone]
inhibition of CYP activity at a statistically significant level ([1]; 0.3-100 μM metaxalone, p≦0.05): inhibited
Inhibitor ([1]; CYP isozyme 2D6, summary of studies): +
Percent of VC ([1]; metaxalone 0.3 μM): 81.3%
Specific Activity Individual ([1]; metaxalone 0.3 μM): 39.5 pmol/min/mg protein and 39.2 pmol/min/mg protein and 40.5 pmol/min/mg protein
Specific Activity Mean ± SD ([1]; metaxalone 0.3 μM): 39.8 ± 0.688 pmol/min/mg protein
Percent of VC ([1]; metaxalone 1 μM): 84.2%
Specific Activity Individual ([1]; metaxalone 1 μM): 42.4 pmol/min/mg protein and 41.3 pmol/min/mg protein
Specific Activity Mean ± SD ([1]; metaxalone 1 μM): 41.2 ± 1.28 pmol/min/mg protein
Percent of VC ([1]; metaxalone 3 μM): 89.3%
Specific Activity Individual ([1]; metaxalone 3 μM): 43.0 pmol/min/mg protein and 44.8 pmol/min/mg protein
Specific Activity Mean ± SD ([1]; metaxalone 3 μM): 43.7 ± 0.940 pmol/min/mg protein
Percent of VC ([1]; metaxalone 30 μM): 85.1%
Specific Activity Individual ([1]; metaxalone 30 μM): 41.4 pmol/min/mg protein and 42.6 pmol/min/mg protein and 40.9 pmol/min/mg protein
Specific Activity Mean ± SD ([1]; metaxalone 30 μM): 41.6 ± 0.893 pmol/min/mg protein
Percent of VC ([1]; metaxalone 100 μM): 85.9%
Specific Activity Individual ([1]; metaxalone 100 μM): 42.6 pmol/min/mg protein and 41.3 pmol/min/mg protein and 42.2 pmol/min/mg protein
Specific Activity Mean ± SD ([1]; metaxalone 100 μM): 42.0 ± 0.680 pmol/min/mg protein
Inducer/Inhibitor ([2]; CYP isozyme 2A6, summary of studies): 0
Percent of VC ([2]; Donor 1, Metaxalone 0.4 μM): 100%
Specific Activity Individual ([2]; Donor 1, Metaxalone 0.4 μM): <2.68 pmol/min/million cells
Specific Activity Mean ± SD ([2]; Donor 1, Metaxalone 0.4 μM): <2.68 ± 0.000 pmol/min/million cells
Percent of VC ([2]; Donor 1, Metaxalone 4 μM): 100%
Specific Activity Individual ([2]; Donor 1, Metaxalone 4 μM): <2.68 pmol/min/million cells
Specific Activity Mean ± SD ([2]; Donor 1, Metaxalone 4 μM): <2.68 ± 0.000 pmol/min/million cells
Percent of VC ([2]; Donor 1, Metaxalone 40 μM): 100%
Specific Activity Individual ([2]; Donor 1, Metaxalone 40 μM): <2.68 pmol/min/million cells
Specific Activity Mean ± SD ([2]; Donor 1, Metaxalone 40 μM): <2.68 ± 0.000 pmol/min/million cells
Percent of VC ([2]; Donor 2, Metaxalone 0.4 μM): 100%
Specific Activity Individual ([2]; Donor 2, Metaxalone 0.4 μM): <2.68 pmol/min/million cells
Specific Activity Mean ± SD ([2]; Donor 2, Metaxalone 0.4 μM): <2.68 ± 0.000 pmol/min/million cells
Percent of VC ([2]; Donor 2, Metaxalone 4 μM): 100%
Specific Activity Individual ([2]; Donor 2, Metaxalone 4 μM): <2.68 pmol/min/million cells
Specific Activity Mean ± SD ([2]; Donor 2, Metaxalone 4 μM): <2.68 ± 0.000 pmol/min/million cells
Percent of VC ([2]; Donor 2, Metaxalone 40 μM): 100%
Specific Activity Individual ([2]; Donor 2, Metaxalone 40 μM): <2.68 pmol/min/million cells
Specific Activity Mean ± SD ([2]; Donor 2, Metaxalone 40 μM): <2.68 ± 0.000 pmol/min/million cells
Percent of VC ([2]; Donor 3, Metaxalone 0.4 μM): 100%
Specific Activity Individual ([2]; Donor 3, Metaxalone 0.4 μM): <2.68 pmol/min/million cells
Specific Activity Mean ± SD ([2]; Donor 3, Metaxalone 0.4 μM): <2.68 ± 0.000 pmol/min/million cells
Percent of VC ([2]; Donor 3, Metaxalone 4 μM): 100%
Specific Activity Individual ([2]; Donor 3, Metaxalone 4 μM): <2.68 pmol/min/million cells
Specific Activity Mean ± SD ([2]; Donor 3, Metaxalone 4 μM): <2.68 ± 0.000 pmol/min/million cells
Percent of VC ([2]; Donor 3, Metaxalone 40 μM): 100%
Specific Activity Individual ([2]; Donor 3, Metaxalone 40 μM): <2.68 pmol/min/million cells
Specific Activity Mean ± SD ([2]; Donor 3, Metaxalone 40 μM): <2.68 ± 0.000 pmol/min/million cells
effects on CYP activity ([2]; any of the tested concentrations (0.4, 4.0, 40 μM)): no significant effects
Inducer/Inhibitor [3]: −
Percent of VC ([3]; Donor 3, Metaxalone 0.4 μM): 98.8%
Percent of VC ([3]; Donor 3, Metaxalone 4 μM): 89.8%
Specific Activity Mean ± SD ([3]; Donor 3, Metaxalone 4 μM): 0.533 ± 0.0146 pmol/min/million cells
CYP2D6 activity ([3]; hepatocytes): below the lower limit of quantitation
Percent of VC ([3]; human, 48 h, 4 μM): 100%
effect on CYP2D6 activity [3, 9]: significantly reduced CYP2D6 activity
Inducer/Inhibitor [4]: +
Specific Activity Mean ± SD ([4]; Donor 2, Metaxalone 0.4 μM): 1.20 ± 0.109 pmol/min/million cells
6β-Hydroxytestosterone formation Adjusted Mean ± SD ([4]; human): 0.116 ± 0.00524 µM
Specific Activity Mean ± SD ([4]; human): <0.905 ± 0.0213 pmol/min/million cells
6β-Hydroxytestosterone formation Adjusted Mean ± SD ([4]; human, 4 h, 4 μM): <0.100 ± 0.000 µM
Specific Activity Mean ± SD ([4]; human, 48 h, 0.4 μM): <0.893 ± 0.000 pmol/min/million cells
effect on CYP3A4 activity ([4]; human, hepatocytes, 48 h): did not induce CYP3A4 activity
induced CYP3A4 activity [4, 9]: about 21%
metaxalone converted to a carboxylic acid derivative [5]: 27%
% Turnover Mean ([6]; 0.75 μM metaxalone): 12.4%
% inhibition of turnover Mean ([6]; 0.75 μM metaxalone): 58.3%
Mean Conc. ([6]; 0.75 μM metaxalone): 676 nM
% Turnover ([6]; 0.75 μM metaxalone): 12.1% and 11.3% and 13.8%
% inhibition of turnover ([6]; 0.75 μM metaxalone): 59.3% and 62.0% and 53.7%
Conc. ([6]; 0.75 μM metaxalone): 678 nM and 684 nM and 665 nM
% Turnover Mean ([6]; 7.5 μM metaxalone): 14.0%
% inhibition of turnover Mean ([6]; 7.5 μM metaxalone): 43.3%
Mean Conc. ([6]; 7.5 μM metaxalone): 7330 nM
% Turnover ([6]; 7.5 μM metaxalone): 7.7%
% Turnover [6, 10]: 14.8% and 19.4%
% inhibition of turnover [6, 10]: 68.7% and 40.0% and 21.1%
Conc. [6, 10]: 7860 nM and 7260 nM and 6860 nM
% Turnover ([7]; 0.75 μM metaxalone): 14.3%
Conc. ([7]; 0.75 μM metaxalone): 661 nM
% Turnover ([7]; 7.5 μM metaxalone): −1.8%
% inhibition of turnover ([7]; 7.5 μM metaxalone): 107%
% Turnover Mean ([8]; 0.75 μM metaxalone): 8.16%
% inhibition of turnover Mean ([8]; 0.75 μM metaxalone): 72.6%
Mean Conc. ([8]; 0.75 μM metaxalone): 709 nM
% Turnover ([8]; 0.75 μM metaxalone): 9.6% and 7.5% and 7.4%
% inhibition of turnover ([8]; 0.75 μM metaxalone): 67.9% and 74.7% and 75.2%
Conc. ([8]; 0.75 μM metaxalone): 698 nM and 714 nM and 715 nM
% Turnover Mean ([8]; 7.5 μM metaxalone): 1.71%
% inhibition of turnover Mean ([8]; 7.5 μM metaxalone): 93.1%
Mean Conc. ([8]; 7.5 μM metaxalone): 8370 nM
% Turnover ([8]; 7.5 μM metaxalone): 5.8% and 11.0% and −11.6%
% inhibition of turnover ([8]; 7.5 μM metaxalone): 76.5% and 55.5% and 147%
Conc. ([8]; 7.5 μM metaxalone): 8020 nM and 7580 nM and 9500 nM
